≈ marks a conversion by molar mass, not a printed value. Read-outs that look alike come from different tables or passages of the source.
Tests used:
[1] = system: Klebsiella aerogenes 1552E; test: In vitro antibacterial activity (MIC), agar two-fold dilution; format: cell-based
Description: (§1) The numbers in Tables represent the minimal inhibitory concentration (MIC, μg/ml) of the corresponding strains and MIC was determined in accordance with the agar culture medium two-fold dilution method by using a Mueller-Hinton agar.
(§2) Hoechst standard strains were used. […]

[2] = system: Pseudomonas aeruginosa 9027; test: as above; format: cell-based
Description: as §1, §2

Escherichia coli O 78 = test: as above; format: cell-based; conditions: 10^7 CFU/ml, 37° C., 18 hours
Description: as §1, §2

[3] = system: Streptococcus pyogenes 77A; test: as above; format: cell-based
Description: as §1, §2

[4] = system: Streptococcus faecium MD 8b; test: as above; format: cell-based
Description: as §1, §2

[5] = system: Staphylococcus aureus 503; test: as above; format: cell-based
Description: as §1, §2

Salmonella typhimurium = test: as above; format: cell-based
Description: as §1, §2

[6] = system: Klebsiella aerogenes 1082E; test: as above; format: cell-based
Description: as §1, §2

[7] = system: Staphylococcus aureus 285; test: as above; format: cell-based
Description: as §1, §2

[8] = system: Pseudomonas aeruginosa 1771; test: as above; format: cell-based
Description: as §1, §2

[9] = system: Staphylococcus aureus SG 511; test: as above; format: cell-based
Description: as §1, §2

[10] = system: Streptococcus pyogenes 308A; test: as above; format: cell-based
Description: as §1, §2

[11] = system: Pseudomonas aeruginosa 1592E; test: as above; format: cell-based
Description: as §1, §2

[12] = system: Enterobacter cloacae P 99; format: cell-based; conditions: Mueller-Hinton agar, 10^7 CFU/ml, 37° C., 18 hours
Description: as §1
(§3) Hoechst standard strains were used.

Escherichia coil DC 0 = test: In vitro antibacterial activity (MIC), agar two-fold dilution; format: cell-based, Escherichia coli
Description: as §1, §2

Escherichia coil DC 2 = test: as above; format: cell-based, Escherichia coli
Description: as §1, §2

Escherichia coil 1507E = test: as above; format: cell-based, Escherichia coli; conditions: Mueller-Hinton agar, 10^7 CFU/ml, 37° C., 18 hours
Description: as §1, §2

Escherichia coil TEM = test: as above; format: cell-based, Escherichia coli
Description: as §1, §2

[13] = system: Enterobacter cloacae 1321E; test: as above; format: cell-based; conditions: Mueller-Hinton agar, 10^7 CFU/ml, 37° C., 18 hours
Description: as §1, §3

[14] = system: Pseudomonas aeruginosa 1771M; test: as above; format: cell-based; conditions: 18 h
Description: as §1, §2

[15] = Klebsiella aerogenes 1552E, Mueller-Hinton agar, 10^7 CFU/ml, 37° C., 18 hours
[16] = Pseudomonas aeruginosa 9027, Mueller-Hinton agar, 10^7 CFU/ml, 37° C., 18 hours
[17] = Streptococcus pyogenes 77A, Mueller-Hinton agar, 10^7 CFU/ml, 37° C., 18 hours
[18] = Streptococcus faecium MD 8b, Mueller-Hinton agar, 10^7 CFU/ml, 37° C., 18 hours
[19] = Staphylococcus aureus 503, Mueller-Hinton agar, 10^7 CFU/ml, 37° C., 18 hours
[20] = Salmonella typhimurium, Mueller-Hinton agar, 10^7 CFU/ml, 37° C., 18 hours
[21] = Klebsiella aerogenes 1082E, Mueller-Hinton agar, 10^7 CFU/ml, 37° C., 18 hours
[22] = Staphylococcus aureus 285, Mueller-Hinton agar, 10^7 CFU/ml, 37° C., 18 hours
[23] = Pseudomonas aeruginosa 1771, Mueller-Hinton agar, 10^7 CFU/ml, 37° C., 18 hours
[24] = Staphylococcus aureus SG 511, Mueller-Hinton agar, 10^7 CFU/ml, 37° C., 18 hours
[25] = Streptococcus pyogenes 308A, Mueller-Hinton agar, 10^7 CFU/ml, 37° C., 18 hours
[26] = Pseudomonas aeruginosa 1592E, Mueller-Hinton agar, 10^7 CFU/ml, 37° C., 18 hours
[27] = Escherichia coil DC 0, Mueller-Hinton agar, 10^7 CFU/ml, 37° C., 18 hours
[28] = Escherichia coil DC 2, Mueller-Hinton agar, 10^7 CFU/ml, 37° C., 18 hours
[29] = Escherichia coil TEM, Mueller-Hinton agar, 10^7 CFU/ml, 37° C., 18 hours

| Structure (SMILES) | MIC [1, 15] [µg/mL] | MIC [2, 16] [µg/mL] | MIC (Escherichia coli O 78; Mueller-Hinton agar) [µg/mL] | MIC [3, 17] [µg/mL] | MIC [4, 18] [µg/mL] | MIC [5, 19] [µg/mL] | MIC (Salmonella typhimurium; [20]) [µg/mL] | MIC [6, 21] [µg/mL] | MIC [7, 22] [µg/mL] | MIC [8, 23] [µg/mL] | MIC [9, 24] [µg/mL] | MIC [10, 25] [µg/mL] | MIC [11, 26] [µg/mL] | MIC [12] [µg/mL] | MIC (Escherichia coil DC 0; [27]) [µg/mL] | MIC (Escherichia coil DC 2; [28]) [µg/mL] | MIC (Escherichia coil 1507E) [µg/mL] | MIC (Escherichia coil TEM; [29]) [µg/mL] | MIC [13] [µg/mL] | further results |
| --- | --- | --- | --- | --- | --- | --- | --- | --- | --- | --- | --- | --- | --- | --- | --- | --- | --- | --- | --- | --- |
| Cl.O=C(C[N+](=O)[O-])c1cn(C2CC2)c2c(Cl)c(N3CC4CCCNC4C3)c(F)cc2c1=O (racemic) [B, 1-cyclopropyl-3-nitroacetyl-6-fluoro-8-chloro-7-[(trans-piperidinopyrrolidine)-8-yl]-4-oxo-1,4-dihydroquinoline hydrochloride] | 0.098 | 0.781 | < 0.025 | 0.195 | 0.195 | 0.195 | 0.049 | 0.098 | 0.098 | 1.563 | 0.098 | 0.781 | 0.781 | 0.025 | 0.391 | 0.098 | 0.049 | 0.049 | 0.013 | – |
| COc1c(N2CC3CCCNC3C2)c(F)cc2c(=O)c(C(=O)C[N+](=O)[O-])cn(C3CC3)c12.Cl (racemic) [C, 1-cyclopropyl-3-nitroacetyl-6-fluoro-8-methoxy-7-[(trans-piperidinopyrrolidine)-8-yl]-4-oxo-1,4-dihydroquinoline hydrochloride] | 0.013 | 0.781 | < 0.002 | 0.391 | 0.391 | 0.025 | 0.007 | 0.049 | 0.025 | 0.781 | 0.098 | 0.781 | 0.781 | 0.004 | 0.195 | 0.098 | 0.025 | 0.004 | < 0.002 | – |
| COc1c(N2C[C@@H]3CCCN[C@@H]3C2)c(F)cc2c(=O)c(C(=O)C[N+](=O)[O-])cn(C3CC3)c12.Cl (racemic) [D, 1-cyclopropyl-3-nitroacetyl-6-fluoro-8-methoxy-7-[(cis-piperidinopyrrolidine)-8-yl]-4-oxo-1,4-dihydroquinoline hydrochloride] | 0.049 | 1.563 | 0.049 | 0.391 | 0.391 | 0.391 | 0.098 | 0.049 | 0.391 | 0.781 | 0.195 | 1.563 | 0.781 | 0.013 | 0.195 | 0.098 | 0.098 | 0.098 | 0.013 | – |
| O=C(O)c1cn(C2CC2)c2c(Cl)c(N3CC4CCCNC4C3)c(F)cc2c1=O (stereo not drawn) [A, 1-cyclopropyl-6-fluoro-7-[(trans-piperidinopyrrolidine)-8-yl]-8-chloro-1,4-dihydroguinoline-4-oxo-3-carboxylicacid] | 0.049 (≈ 0.121 µM) | 0.781 (≈ 1.92 µM) | < 0.002 | 0.098 (≈ 0.241 µM) | 0.098 (≈ 0.241 µM) | 0.025 (≈ 0.0616 µM) | < 0.002 | < 0.002 | 0.025 (≈ 0.0616 µM) | 0.781 (≈ 1.92 µM) | 0.025 (≈ 0.0616 µM) | 0.391 (≈ 0.963 µM) | 0.781 (≈ 1.92 µM) | 0.004 (≈ 0.00986 µM) | 0.195 (≈ 0.48 µM) | 0.013 (≈ 0.032 µM) | 0.025 (≈ 0.0616 µM) | 0.007 (≈ 0.0172 µM) | < 0.002 | – |
| O=C(O)c1cn(C2CC2)c2cc(N3CCNCC3)c(F)cc2c1=O [Ciprofloxacin, ciprofloxacin, reference compound] | – | – | – | – | – | – | – | – | – | – | – | – | – | – | – | – | – | – | – | MIC ([1]; Klebsiella aerogenes, 1552E, 18 h): 0.013 µg/mL (≈ 0.0392 µM); MIC ([2]; Pseudomonas aeruginosa, 9027, 18 h): 0.391 µg/mL (≈ 1.18 µM); MIC (Escherichia coli O 78; O78, Mueller-Hinton agar, read-out: MIC): < 0.002 µg/mL; MIC ([3]; Streptococcus pyogenes, 77A, 18 h): 0.781 µg/mL (≈ 2.36 µM); MIC ([4]; Enterococcus faecium, MD8B, 18 h): 0.781 µg/mL (≈ 2.36 µM); MIC ([5]; Staphylococcus aureus, 503, 18 h): 0.781 µg/mL (≈ 2.36 µM); MIC [14]: 0.049 µg/mL (≈ 0.148 µM); MIC (Salmonella typhimurium; Salmonella enterica, TYPHIMURIUM, 18 h): 0.007 µg/mL (≈ 0.0211 µM); MIC ([6]; Klebsiella aerogenes, 1082E, 18 h): < 0.002 µg/mL; MIC ([7]; Staphylococcus aureus, 285, 18 h): 0.391 µg/mL (≈ 1.18 µM); MIC ([8]; Pseudomonas aeruginosa, 1771, 18 h): 0.195 µg/mL (≈ 0.589 µM); MIC ([9]; Staphylococcus aureus, SG511, 18 h): 0.195 µg/mL (≈ 0.589 µM); MIC ([10]; Streptococcus pyogenes, 308A, 18 h): 3.12 µg/mL (≈ 9.43 µM); MIC ([11]; Pseudomonas aeruginosa, 1592E, 18 h): 0.195 µg/mL (≈ 0.589 µM); MIC (Escherichia coil DC 0; Escherichia, DC0, 18 h): 0.195 µg/mL (≈ 0.589 µM); MIC (Escherichia coil DC 2; Escherichia, DC2, 18 h): 0.098 µg/mL (≈ 0.296 µM); MIC (Escherichia coil 1507E; read-out: MIC): 0.007 µg/mL (≈ 0.0211 µM); MIC (Escherichia coil TEM; Escherichia, 18 h): 0.007 µg/mL (≈ 0.0211 µM) |

— US5770597A, “Quinolone derivatives and processes for preparing the same” (Korea Research Institute of Chemical Technology, priority 1993, dated 1998)
